Source: patent US20220372099A1 (priority 2019, published 2022)
Each block holds one compound with its values, some of them ahead of it.

Key:
[1] = system: erythropoietic activity; assay: repeat-dose study, 13 weekly SC doses with 35-day recovery, limiting erythropoiesis; type: in vivo, Cynomolgus monkeys
Excerpt: A cohort of animals (4/sex/group) were sacrificed on Day 92 (Main), and the remaining animals (2/sex/group) were sacrificed on Day 120 following a 35-day recovery period (Recovery).

[2] = plasma concentrations of Compound A in PV patients; type: in vivo, human; settings: SC doses of 10 mg to 80 mg, various times after dosing
Procedure: Plasma concentrations of Compound A were measured at various times after dosing of subcutaneous doses of 10 mg to 80 mg in PV patients. The concentrations increased in a dose-dependent manner and varied based on dose and time of sampling. Compound A concentrations ranged from below detectable (<2 ng/mL) to 866 ng/mL (FIGS. 17A and 17B).

[3] = Phase I single dose study in healthy subjects; type: in vivo, human; settings: 62 healthy subjects
Excerpt: Compound A is a hepcidin mimetic agent in clinical studies for multiple blood disorders.

[4] = system: Polycythemia vera; assay: Phase 2 study in patients with phlebotomy-requiring Polycythemia vera; settings: 10-80 mg SC weekly
[5] = system: erythropoietic activity; assay: repeat-dose study, 4 weekly SC doses with 28-day recovery, limiting erythropoiesis; settings: SC weekly x4
[6] = system: Polycythemia vera; settings: through week 32 (portal vein thrombosis); 6 events with BAT; cited from earlier work
[7] = system: serum iron; assay: PK-PD experiment, serum iron (Cobas Iron2 colorimetric assay); type: in vivo, Cynomolgus monkeys; settings: 2.93 mg/kg SC
Procedure: Iron content in plasma/serum was measured using a colorimetric assay on the Cobas c 111 according to instructions from the manufacturer of the assay (assay: IRON2: ACN 661).

[8] = system: Polycythemia vera; settings: PV mice expressing the orthologous JAK2 mutation; cited from earlier work

dose with hematopoietic hypercellularity in bone marrow, extramedullary hematopoiesis and hemosiderin deposition in liver and spleen ([1]; SC weekly x13): ≥ 2 mg/kg/dose
dose with increased organ weight (liver and spleen) ([1]; SC weekly x13): 6 mg/kg/dose
dose with increase in total bilirubin (tBili) ([1]; during the treatment period): ≥ 2 mg/kg/day
dose with significantly elevated levels of platelets ([1]; male and female animals): 6 mg/kg/dose
plasma concentrations of Compound A, ranged from below detectable (<2 ng/mL) up to [2]: ≤ 866 ng/mL
grade of most of the injection site reactions [4]: 1-2 grade
leukocyte count over the course of treatment [4]: remained generally steady
platelet counts over the course of treatment [4]: remained generally steady
dose causing pharmacology-mediated anemia (dose- and time-dependent decreases in Hct and Hgb) [5]: ≥ 3 mg/kg/dose
Compound: CCCCCCCCCCCCCCCC(=O)N[C@@H](CCC(=O)NCCCC[C@@H]1NC(=O)[C@H]([C@@H](C)CC)NC(=O)[C@@H](NC(=O)[C@@H]2CCCN2C(=O)[C@H](Cc2ccccc2)NC(=O)[C@H](Cc2c[nH]cn2)NC(=O)[C@@H](NC(=O)[C@H](CC(=O)O)NC(=O)CC(C)C)[C@@H](C)O)CSSC[C@@H](C(=O)N[C@@H](CCCCN)C(N)=O)NC(=O)CNC(=O)[C@H](CCCCN)NC(=O)[C@H](CO)NC(=O)[C@H](CCCNC(=N)N)NC(=O)[C@@H]2CCCN2C(=O)[C@H](CCC(=O)O)NC(=O)[C@H](Cc2ccccc2)NC1=O)C(=O)O [Compound A]
adverse events [3]: without significant adverse events
most frequent adverse events [4]: injection site reaction (ISR) reported by three patients
tolerability [4]: well tolerated

Compound: N#CC[C@H](C1CCCC1)n1cc(-c2ncnc3[nH]ccc23)cn1 [ruxolitinib]
thromboembolic events [6]: 1 event

Compound: Isovaleric acid-DTHFPCIKF(K(PEG11-Palm))PRSK[Sar]CK-NH2 [Compound B]
time of maximal serum iron reduction [7]: about 12 hour
serum iron lower than the pre-dose levels (maximal reduction) ([7]; about 12 hour post administration): 12 fold

Compound: minihepcidin: hepcidin mimetic administered to PV mice in Casu et al., Blood 2016; not further defined (DTHFPICIF)
hematocrit [8]: normalizes hematocrit
splenomegaly [8]: significantly reduces splenomegaly
